Measurements reported in US9856279B2 (AGIOS PHARMACEUTICALS, INC, priority 2011, dated 2018).
pIC50: −log10 of the molar value.

Experiments:
U87MG cells = experiment: Cellular assay for IDH1m inhibitors: inhibition of 2-HG production (LC-MS, 48 hours) in U87MG cells; assay type: cell-based; conditions: Homo sapiens, U-87 MG, inhibition of 2-HG production, U87R132H cells; read-out: U87R132H IC50
How it was run: (§1)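 Each cell line is plated at 5000 cells/well in DMEM with 10% FBS and left overnight at 37 °C. Test compounds are then added for 48 h, after which 2-HG in the medium is determined by LC-MS; IC50 reflects 50% reduction compared with control.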

IDH1 R132H = IDH1 R132H (Homo sapiens, UniProt O75874, R132H); experiment: Assay for IDH1 R132H inhibitors (NADPH/aKG, resazurin detection); assay type: biochemical; conditions: enzyme assay of Example 12; read-out: IDH1R132H IC50
How it was run: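 Read-out is resorufin fluorescence (Ex544/Em590) 5 min after adding a 30 μM resazurin detection mix. Before that, mutant enzyme (0.2 μg/ml in its mix) ran 50 min at room temperature with compound, 8 uM NADPH and 2 mM aKG (mix levels) in Tris pH 7.5 with NaCl, MgCl2, BSA.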

HT1080 cells = experiment: Cellular assay for IDH1m inhibitors: inhibition of 2-HG production (LC-MS, 48 hours) in HT1080 cells; assay type: cell-based; conditions: Homo sapiens, HT-1080; inhibition of 2-HG production, HT1080 cells; read-out: HT1080 IC50
How it was run: as §1

Sequence of IDH1 R132H (O75874 whole entry R132H): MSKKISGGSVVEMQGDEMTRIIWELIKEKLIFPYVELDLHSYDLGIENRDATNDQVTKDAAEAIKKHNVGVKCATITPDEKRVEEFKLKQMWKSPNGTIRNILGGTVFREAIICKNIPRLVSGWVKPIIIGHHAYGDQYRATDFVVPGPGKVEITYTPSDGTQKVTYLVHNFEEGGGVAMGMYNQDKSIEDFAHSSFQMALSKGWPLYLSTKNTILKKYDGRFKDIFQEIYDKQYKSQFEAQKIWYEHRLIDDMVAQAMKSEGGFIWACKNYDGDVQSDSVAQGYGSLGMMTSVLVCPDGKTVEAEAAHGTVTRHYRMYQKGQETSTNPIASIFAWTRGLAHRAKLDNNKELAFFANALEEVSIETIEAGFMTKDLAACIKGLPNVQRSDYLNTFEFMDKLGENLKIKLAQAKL

SMILES | pIC50 (U87MG cells) | pIC50 (IDH1 R132H) | pIC50 (HT1080 cells)
COCCC(=O)N1CCN(c2nc(C3CC3)c(-c3cccc4c[n+]([O-])ccc34)cc2C#N)C[C@H]1C [Compound 420, (R)-5-(5-cyano-2-cyclopropyl-6-(4-(3-methoxypropanoyl)-3-methylpiperazin-1-yl)pyridin-3-yl)isoquinoline 2-oxide] | 5.00 to 6.00 | > 6.30 | 5.00 to 6.00
C=Cc1ccnc(Nc2cc(C#N)c(N3CCN(C(=O)C[C@H]4CCO4)[C@H](C(C)C)C3)nc2C2CC2)c1 [Compound 764, 6-cyclopropyl-2-((R)-3-isopropyl-4-(2-((R)-oxetan-2-yl)acetyl)piperazin-1-yl)-5-((4-vinylpyridin-2-yl)amino)nicotinonitrile] | > 6.30 | > 6.30 | > 6.30
N#Cc1cc(-c2cccc3nc(O)ccc23)c(C2CC2)nc1N1CCN(C(=O)C2CC2)[C@H](C2CC2)C1 [Compound 476, (R)-2-(4-(cyclopropanecarbonyl)-3-cyclopropylpiperazin-1-yl)-6-cyclopropyl-5-(2-hydroxyquinolin-5-yl)nicotinonitrile] | > 6.30 | > 6.30 | 6.00 to 6.30
C=Cc1cc(-c2cc(C#N)c(N3CCN(C(=O)COC)[C@H](C(C)C)C3)nc2C2CC2)ccn1 [Compound 726, (R)-2-cyclopropyl-6-(3-isopropyl-4-(2-methoxyacetyl)piperazin-1-yl)-2′-vinyl-3,4′-bipyridine-5-carbonitrile] | > 6.30 | > 6.30 | > 6.30
COCCC(=O)N1CCN(c2nc(C3CC3)c(Oc3ccnc(Cl)c3)cc2C#N)C[C@H]1C1CC1 [Compound 695, (R)-5-((2-chloropyridin-4-yl)oxy)-6-cyclopropyl-2-(3-cyclopropyl-4-(3-methoxypropanoyl)piperazin-1-yl)nicotinonitrile] | > 6.30 | > 6.30 | > 6.30
COCCC(=O)N1CCN(c2nc(C3CC3)c(-c3cccc4cnccc34)cc2C#N)C[C@H]1C [Compound 286, (R)-6-cyclopropyl-5-(isoquinolin-5-yl)-2-(4-(3-methoxypropanoyl)-3-methylpiperazin-1-yl)nicotinonitrile] | > 6.30 | > 6.30 | > 6.30
COCCC(=O)N1CCN(c2nc(C3CC3)c(-c3cccc4cnccc34)cc2C#N)C[C@H]1C1CC1 [Compound 409, (R)-6-cyclopropyl-2-(3-cyclopropyl-4-(3-methoxypropanoyl)piperazin-1-yl)-5-(isoquinolin-5-yl)nicotinonitrile] | > 6.30 | > 6.30 | > 6.30
COCCC(=O)N1CCN(c2nc(C3CC3)c(-c3ccc(C#N)cc3)c(C)c2C#N)C[C@H]1C [Compound 347, (R)-5-(4-cyano-phenyl)-6-cyclopropyl-2-[4-(3-methoxy-propionyl)-3-methyl-piperazin-1-yl]-4-methyl-nicotinonitrile] | > 6.30 | > 6.30 | > 6.30
CCO[C@@H]1C[C@@H]1C(=O)N1CCN(c2nc(C3CC3)c(-c3cccc4cnccc34)cc2C#N)C[C@H]1C1CC1 [Compound 526, 6-cyclopropyl-2-((R)-3-cyclopropyl-4-((1S,2R)-2-ethoxycyclopropanecarbonyl)piperazin-1-yl)-5-(isoquinolin-5-yl)nicotinonitrile] | > 6.30 | 6.00 to 6.30 | > 6.30
COCCC(=O)N1CCN(c2nc(C3CC3)c(-c3ccccc3C#N)cc2C#N)C[C@H]1C(C)C [Compound 274, (R)-5-(2-cyanophenyl)-6-cyclopropyl-2-(3-isopropyl-4-(3-methoxypropanoyl)piperazin-1-yl)nicotinonitrile] | 5.00 to 6.00 | 6.00 to 6.30 | 5.00 to 6.00
N#Cc1cc(-c2ccnc(Br)c2)c(C2CC2)nc1N1CCN(C(=O)C2CC2)[C@H](C2CC2)C1 [Compound 508, (R)-2′-bromo-6-(4-(cyclopropanecarbonyl)-3-cyclopropylpiperazin-1-yl)-2-cyclopropyl-3,4′-bipyridine-5-carbonitrile] | > 6.30 | > 6.30 | > 6.30
C=Cc1cc(-c2c(C3CC3)nc(N3CCN(C(=O)CCC4CCCC4)[C@H](C4CC4)C3)c(C#N)c2C)ccn1 [Compound 797, (R)-6-(4-(3-cyclopentylpropanoyl)-3-cyclopropylpiperazin-1-yl)-2-cyclopropyl-4-methyl-2′-vinyl-3,4′-bipyridine-5-carbonitrile] | > 6.30 | > 6.30 | > 6.30
C=Cc1ccc2ccc(-c3cc(C#N)c(N4CCN(C(=O)C5CC5)[C@H](C5CC5)C4)nc3C3CC3)cc2n1 [Compound 709, (R)-2-(4-(cyclopropanecarbonyl)-3-cyclopropylpiperazin-1-yl)-6-cyclopropyl-5-(2-vinylquinolin-7-yl) nicotinonitrile] | > 6.30 | > 6.30 | > 6.30
C=Cc1cc(-c2cc(C#N)c(N3CCN(C(=O)C[C@H]4CCO4)[C@H](C4CC4)C3)nc2C2CC2)c2cnn(C)c2n1 [Compound 778, 6-cyclopropyl-2-((R)-3-cyclopropyl-4-(2-((R)-oxetan-2-yl)acetyl)piperazin-1-yl)-5-(1-methyl-6-vinyl-1H-pyrazolo[3,4-b]pyridin-4-yl)nicotinonitrile] | > 6.30 | > 6.30 | > 6.30
C=Cc1cnnc(-c2c(C3CC3)nc(N3CCN(C(=O)CCO)[C@H](C(C)C)C3)c(C#N)c2C)c1 [Compound 784, (R)-6-cyclopropyl-2-(4-(3-hydroxypropanoyl)-3-isopropylpiperazin-1-yl)-4-methyl-5-(5-vinylpyridazin-3-yl)nicotinonitrile] | > 6.30 | > 6.30 | > 6.30

Next, values leading:

pIC50 (U87MG cells) | pIC50 (IDH1 R132H) | pIC50 (HT1080 cells) | SMILES
> 6.30 | > 6.30 | > 6.30 | C=CC(=O)N1CCC=C(c2c(C3CC3)nc(N3CCN(C(=O)CCO)[C@H](C4CC4)C3)c(C#N)c2C)C1 [Compound 755, (R)-5-(1-acryloyl-1,2,5,6-tetrahydropyridin-3-yl)-6-cyclopropyl-2-(3-cyclopropyl-4-(3-hydroxypropanoyl)piperazin-1-yl)-4-methylnicotinonitrile]
5.00 to 6.00 | > 6.30 | 5.00 to 6.00 | COCCC(=O)N1CCN(c2nc(C3CC3)c(-c3ccc(F)c(Cl)c3)c(C)c2C#N)C[C@H]1C [Compound 271, (R)-5-(3-chloro-4-fluorophenyl)-6-cyclopropyl-2-(4-(3-methoxypropanoyl)-3-methylpiperazin-1-yl)-4-methylnicotinonitrile]
> 6.30 | > 6.30 | > 6.30 | C#Cc1ccnc(Nc2cc(C#N)c(N3CCN(C(=O)COC)[C@H](C4CC4)C3)nc2C2CC2)c1 [Compound 750, (R)-6-cyclopropyl-2-(3-cyclopropyl-4-(2-methoxyacetyl)piperazin-1-yl)-5-(4-ethynylpyridin-2-ylamino)nicotinonitrile]
6.00 to 6.30 | > 6.30 | 6.00 to 6.30 | COCCC(=O)N1CCN(c2nc(C3CC3)c(-c3ccc(OC)c(F)c3)c(C)c2C#N)C[C@H]1C [Compound 323, (R)-6-cyclopropyl-5-(3-fluoro-4-methoxy-phenyl)-2-[4-(3-methoxy-propionyl)-3-methyl-piperazin-1-yl]-4-methyl-nicotinonitrile]
> 6.30 | > 6.30 | > 6.30 | C=Cc1cc(-c2c(C3CC3)nc(N3CCN(C(=O)C[C@H]4CCO4)[C@H](C(C)C)C3)c(C#N)c2C)ccn1 [Compound 781, 2-cyclopropyl-6-((R)-3-isopropyl-4-(2-((R)-oxetan-2-yl)acetyl)piperazin-1-yl)-4-methyl-2′-vinyl-3,4′-bipyridine-5-carbonitrile]
5.00 to 6.00 | > 6.30 | 5.00 to 6.00 | C=CC(=O)N(c1ccncc1)c1cc(C#N)c(N2CCN(C(=O)CCOC)[C@H](C)C2)nc1C1CC1 [Compound 702, (R)—N-(5-cyano-2-cyclopropyl-6-(4-(3-methoxypropanoyl)-3-methylpiperazin-1-yl)pyridin-3-yl)-N-(pyridin-4-yl) acryl amide]
6.00 to 6.30 | > 6.30 | 5.00 to 6.00 | COCCC(=O)N1CCN(c2nc(C3CC3)c(-c3cnc4[nH]ccc4c3)cc2C#N)C[C@H]1C [Compound 374, (R)-6-cyclopropyl-2-[4-(3-methoxy-propionyl)-3-methyl-piperazin-1-yl]-5-(1H-pyrrolo[2,3-b]pyridin-5-yl)-nicotinonitrile]
> 6.30 | > 6.30 | > 6.30 | C=Cc1cc(-c2cc(C#N)c(N3CCN(C(=O)C4CC4)[C@H](C4CC4)C3)nc2C2CC2)ncn1 [Compound 541, (R)-2-(4-(cyclopropanecarbonyl)-3-cyclopropylpiperazin-1-yl)-6-cyclopropyl-5-(6-vinylpyrimidin-4-yl)nicotinonitrile]
5.00 to 6.00 | > 6.30 | 5.00 to 6.00 | C=CS(=O)(=O)N(c1cccc(-c2c(C3CC3)nc(N3CCN(C(=O)C4CC4)[C@H](C4CC4)C3)c(C#N)c2C)c1)S(=O)(=O)C=C [Compound 463, (R)—N-(3-(5-cyano-6-(4-(cyclopropanecarbonyl)-3-cyclopropylpiperazin-1-yl)-2-cyclopropyl-4-methylpyridin-3-yl)phenyl)-N-(vinylsulfonyl)ethenesulfonamide]
